Experimental data taken from US11898155B2, “Method for introducing molecule and composition containing inhibitor” (Pearl Kogyo Co., Ltd., priority 2017, dated 2024).

What was measured:
L-929 cells [1] = assay: Gene transfer efficiency (GFP-expressing cells/viable cell number, Cytell) after plasma introduction with inhibitor treatment; format: cell-based, mouse; details: for gene introduction rate: concentration of inhibitor changed, normalized to control without inhibitor = 1 (FIGS. 8 to 11)
Method: (§1) Mouse fibroblast L-929 cells were seeded on a 96-well plate and were cultured for 24 h in CO2 incubator. A culture medium was removed by aspiration, and 100 μL of nocodazole (inhibitor) free-culture medium, 1 μM nocodazole-containing culture medium, or 100 μM nocodazole-containing culture medium was added to each well. The cells were cultured for 30 min in CO2 incubator. Next, the culture medium was removed by aspiration, and 6.0 μg/6.0 μL of pAcGFP1-N1 plasmid (selected molecule) solution was added dropwise to each well. The 96-well plate was set in plasma irradiation equipment and irradiated with plasma. Then, 100 μL of culture medium was immediately added, and the plate was returned to CO2 incubator and the cells were cultured for 24 h. The cells after the culturing were observed under a microscope.
A selected molecule was introduced in the same manner as in Example 1, except the point that in the inhibitor treatment step using 1 μM nocodazole, the treatment time was changed from 1 min to 120 min. […] The dashed line denotes the level in the case without adding nocodazole (control, left panel). The gene transfer efficiency (%) was calculated, using a Cytell (Cytell Cell Imaging System, manufactured by GE Healthcare, Inc.), as (the number of GFP-expressing cells/viable cell number).
A selected molecule was introduced in the same manner as in Example 1, except the point that the cells were treated with 5 μM or 15 μM chloroquine diphosphate and the plasma irradiation time was changed.
A selected molecule was introduced in the same manner as in Example 1, except the point that the concentration of nocodazole was changed, to determine cell viability and gene transfer efficiency. The plasma irradiation conditions were at a frequency of 20 kHz, a voltage of 15 kVpp, and an inter-electrode distance of 1 mm and for an irradiation time of 1 msec.
Cell viability and gene transfer efficiency were determined in the same manner as in Example 4, except the point that chloroquine was used as the inhibitor.
Cell viability and gene transfer efficiency were determined in the same manner as in Example 4, except the point that LY-294002 was used as the inhibitor.
Cell viability and gene transfer efficiency were determined in the same manner as in Example 4, except the point that wortmannin was used as the inhibitor.

L-929 cells [2] = assay: GFP-expressing plasmid introduction by plasma irradiation after inhibitor treatment, microscope observation; format: cell-based, mouse; details: 1 μM or 100 μM nocodazole, 30 min before plasma irradiation; compared to the case without nocodazole treatment (FIGS. 2 to 4)
Method: as §1
In Example 1, the plasma irradiation conditions were at a frequency of 20 kHz, a voltage of 15 kVpp, and an inter-electrode distance of 1 mm and for an irradiation time of 1 msec or 5 msec.

MG63 cells [3] = assay: GFP plasmid introduction by plasma with nocodazole treatment before irradiation, microscope observation; format: cell-based, human; details: 1.0 μM or 0.1 μM nocodazole before plasma irradiation; vs without nocodazole treatment (FIG. 12)
Method: as §1
An experiment was conducted in the same manner as in Experiment 1, except that cells (human osteosarcoma cells, MG63 cells) different from those in Example 1 were used. The concentration of nocodazole was 1 μM or 0.1 μM.

MDCK cells = assay: GFP plasmid introduction by plasma with nocodazole treatment after plasma irradiation, microscope observation; format: cell-based, canine; details: 1.0 μM or 0.1 μM nocodazole for 30 min after plasma irradiation; vs without nocodazole treatment (FIG. 13)
Method: (§2) By using cells (canine renal epithelial cell MDCK cells or human osteosarcoma cell MG63 cells) different from those in Example 1, gene transfer efficiency was examined when nocodazole treatment was performed after plasma irradiation. Specifically, the following protocol was used to conduct an experiment.
(§3) Canine renal epithelial cell MDCK cells or human osteosarcoma cell MG63 cells were each seeded on a 96-well plate and cultured for 24 h in CO2 incubator. The culture medium was removed by aspiration, and 6.0 μg/6.0 μL of pAcGFP1-N1 plasmid (selected molecule) solution was added dropwise to each well. The 96-well plate was set in plasma irradiation equipment and was irradiated with plasma. Then, 100 μL of nocodazole (inhibitor)-free culture medium, 1 μM nocodazole-containing culture medium, or 0.1 μM nocodazole-containing culture medium was added to each well. The cells were cultured for 30 min in CO2 incubator. After that, the culture medium was removed by aspiration and 100 μL of culture medium was added immediately. The plate was returned to CO2 incubator, and the cells were cultured for 24 h. The cells after the culturing were observed under a microscope. The plasma irradiation conditions were the same as in Example 1.

MG63 cells [4] = assay: as above; format: cell-based, human; details: 1.0 μM or 0.1 μM nocodazole for 30 min after plasma irradiation; vs without nocodazole treatment (FIG. 14)
Method: as §2, §3

L-929 cells [5] = assay: PCR quantification of remaining plasmid gene at 24 h after introduction; format: cell-based, mouse; details: 1 μM nocodazole, from Cq values (FIG. 15)
Method: A selected molecule was introduced into mouse fibroblast L-929 cells in the same procedure as in Example 1. The resulting cells were cultured for 24 h. […] The cultured cells were collected from eight wells, and a High Pure PCR Template Preparation Kit (manufactured by Roche, Inc.) was used to recover and purify DNA. Next, 50 ng of the purified DNA was added to a PCR reaction kit SYBR Green I (Fast Start Essential DNA Green Master, manufactured by Roche, Inc.). Each resulting mixture was subjected to 40 cycles of amplification using a PCR machine (LightCycler 96 system, manufactured by Roche, Inc.). […] Each Cq value refers to a value determined by calculating a cycle number after amplification of gene sequence of interest has started and before a quantitative increase (linear increase) is initiated. The cycle number indicated by each arrow in FIG. 15(B) refers to the Cq value. When many copies of the gene sequence of interest are contained, there is a rapid increase in amplification and the Cq value is small. In addition, the inverse number of Cq value is proportional to the initial amount of the gene sequence of interest.

O=c1cc(N2CCOCC2)oc2c(-c3ccccc3)cccc12 [LY-294002, 2-(4-morpholinyl)-8-phenyl-4H-1-benzopyran-4-one]
gene introduction rate (L-929 cells [1]; plasma irradiation 1 msec): significantly increased

CCN(CC)CCCC(C)Nc1ccnc2cc(Cl)ccc12 (stereo not drawn) [chloroquine]
gene transfer efficiency (L-929 cells [1]; chloroquine 5 μM or 15 μM, plasma irradiation time 1 msec to 10 msec, vs cells without chloroquine treatment (std) (FIG. 7(B))): increased | gene introduction rate (L-929 cells [1]; plasma irradiation 1 msec): significantly increased

COC(=O)Nc1nc2ccc(C(=O)c3cccs3)cc2[nH]1 [nocodazole]
number of GFP-expressing cells (L-929 cells [2]): increased | gene transfer efficiency (L-929 cells [1]; 1 μM nocodazole, treatment time 1 min to 120 min, plasma irradiation time 1 msec, vs without nocodazole (FIG. 6(B))): marked increase | gene transfer efficiency (L-929 cells [1]; 1 μM nocodazole, treatment time 1 min to 120 min, plasma irradiation time 5 msec, vs cells without nocodazole (FIG. 5(B))): markedly increased | gene introduction rate (L-929 cells [1]; plasma irradiation 1 msec): significantly increased | number of GFP-expressing cells (MG63 cells [3]): increased | number of GFP-expressing cells (MDCK cells): increase | number of GFP-expressing cells (MG63 cells [4]): increase | amount of exogenous gene DNA remaining in cells relative to cells without nocodazole treatment (L-929 cells [5]): about 1.44 times

COC[C@H]1OC(=O)c2coc3c2[C@@]1(C)C1=C(C3=O)[C@@H]2CCC(=O)[C@@]2(C)C[C@H]1OC(C)=O [wortmannin]
inhibitor concentration at which the gene transfer efficiency was further markedly increased (L-929 cells [1]; plasma irradiation 1 msec, 30 min inhibitor treatment (FIGS. 8 to 11)): ≤ 0.01 µM
